Measurements as given in US11634447B2 (priority 2012, dated 2023).
“And” between values parts separate entries of the source, which are not always exact repeats. Identical values can stand only once.

Tests used:
FimH-CRD [1] = molecular target: T1, FimH-CRD (Escherichia coli, UniProt P08191); assay: Competitive binding assay by fluorescence polarization, assay 2 (compounds prepared by a robotics system, plates frozen and thawed); design: species or system E. coli
T1 construct: The first 177 amino acids of the FimH protein are expressed as a fusion protein; thrombin tag (printed as 'fusion protein with thrombin') (cleaved yes); made in house; host or cells: bacteria (pET21b plasmid)
T1 sequence (P08191 22-177): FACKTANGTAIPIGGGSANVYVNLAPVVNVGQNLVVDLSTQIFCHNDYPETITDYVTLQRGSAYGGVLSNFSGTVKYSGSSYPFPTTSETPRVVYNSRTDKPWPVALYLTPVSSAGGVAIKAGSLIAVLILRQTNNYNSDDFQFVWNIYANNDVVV
Procedure: The first 177 amino acids of the FimH protein are expressed as a fusion protein with thrombin in a pET21b plasmid in bacteria. This FimH protein sequence contains the carbohydrate recognition domain (CRD) and shall be termed FimH-CRD. Following bacterial expression of the protein, the FimH-CRD protein is purified to homogeneity and the thrombin tag removed by protease cleavage. A competitive binding assay by fluorescence polarization is performed using 5 nM of the Alexa 647 mannoside probe and 60 nM of the FimH-CRD. The samples are assayed in a low volume 384 well microtiter plate in a final volume of 20 μl. The final assay buffer conditions are the following, 50 mM Tris-Cl, ph 7.0, 100 mM NaCl, 1 mM EDTA, 5 mM β-mercaptoethanol, 0.05% BSA and 2.5% DMSO. Two assays are performed for FimH, termed assay 1 or assay 2. The assay conditions are the same for both assays except the following: assay 1 has compounds prepared by manual dilution in a serial dilution factor with 12-point dose response while assay 2 has compounds prepared by a robotics system also through a serial dilution factor (12 point dose response) and initially prepared in duplicate in 384 well-Corning polypropylene round bottom plates. The assay 2 plates have compound which is then frozen and must be thawed prior to use. Initially the Alexa 647 probe and the FimH-CRD are added to the assay buffer and then 0.5 μl of test compound (assay 1 or 2) between 0.4 nM to 75 μM final concentration are added (12 point titration with 3-fold serial dilution). Control wells for the Alexa 647 probe are prepared with the same conditions except for the addition of the FimH-CRD protein. Plates are then incubated for 5 hrs at room temperature in the dark and under humid conditions to prevent drying. Plates are read using the SpectraMax Paradigm multi-mode plate reader and the appropriate fluorescent polarization detection cartridge (Alexa-647).
Alexa 647 mannoside probe is prepared using the similar procedure reported for FAM mannoside (Han, Z. et. al., 2010, J. Med. Chem., 53, 4779) and is described in the scheme below.
To a blue colored stirred solution of (2S,3S,4S,5S,6R)-2-(4-aminobutoxy)-6-(hydroxymethyl)tetrahydropyran-3,4,5-triol (2.21 mg, 0.009 mmol) and the (2E)-2-[(2E,4E)-5-[3,3-dimethyl-5-sulfonato-1-(3-sulfonatopropyl)indol-1-ium-2-yl]penta-2,4-dienylidene]-3-[6-(2,5-dioxopyrrolidin-1-yl)oxy-6-oxo-hexyl]-3-methyl-1-(3-sulfonatopropyl)indoline-5-sulfonate (Potassium Ion (3)) (4.9 mg, 0.0044 mmol) in DMF (44 μL) is added Et3N (5.4 mg, 7.0 μL, 0.053 mmol) at RT. The solution is stirred at room temperature over night, concentrated, dissolved in water and purified on 12 g C-18 silica gel cartridge on Isolera system using acetonitrile in water (0 to 40%, 10 CV) and followed by lyophilization to afford Alexa 647 mannoside probe (3.3 mg, 34%) as deep blue solid.
The Kd values of the compounds are determined from dose response curves using twelve concentrations per compound in duplicate. Curves are fitted to data points using Fluorescence Polarization competitive displacement analysis, and Kds are interpolated from the resulting curves using GraphPad Prism software, version […] (GraphPad software Inc., San Diego, Calif., USA).

[2] = test system: bacterial strain LF82 binding to the glycoprotein BSA-(Mannose)3; assay: Bacterial Binding Assay (BBA); type: cell-based, Escherichia coli; settings: read-out: Bacterial Binding Assay IC50, LF82/Luciferase strain binding to BSA-(Man)3 coated plates, luminescence
Method in brief: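 Inhibition of LF82/luciferase E. coli adhesion is read as luminescence after washing off unbound cells. Compound and bacteria (10^7 per well) are co-incubated 40-75 min at room temperature on wells coated with 0.5-2 μg/mL BSA-(Man)3, with BSA-only wells as background; IC50 values derived.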

FimH-CRD [3] = molecular target: T1, FimH-CRD; assay: Competitive binding assay by fluorescence polarization, assay 1 (compounds prepared by manual dilution); design: species or system E. coli; settings: Assay 1 Kd, 5 nM Alexa 647 mannoside probe, 60 nM FimH-CRD, replicate values in one cell
Method in brief: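 FimH-CRD (residues 1-177, tag removed) at 60 nM competed against 5 nM Alexa 647 mannoside probe in 50 mM Tris-Cl pH 7.0, 100 mM NaCl, 1 mM EDTA, 5 mM β-mercaptoethanol, 0.05% BSA, 2.5% DMSO; 5 h, room temperature, dark. Compounds 0.4 nM-75 μM final, 12-point 3-fold, duplicate; Kd from fluorescence polarization displacement curves. Assay 1: manual dilution; assay 2: robotic dilution, plates frozen/thawed.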

[4] = Assay 2 Kd, 5 nM Alexa 647 mannoside probe, 60 nM FimH-CRD, replicate values in one cell
[5] = read-out: Assay 2 Kd, 5 nM Alexa 647 mannoside probe, 60 nM FimH-CRD, replicate values in one cell

Row | Structure (SMILES) | Kd (FimH-CRD [1]; [4]) | Kd (FimH-CRD [1]; [5]) | IC50 [2] | Kd (FimH-CRD [3])
1 | OC[C@H]1O[C@H](c2cccc(CCCCc3cccc([C@H]4O[C@H](CO)[C@@H](O)[C@H](O)[C@@H]4O)c3)c2)[C@@H](O)[C@@H](O)[C@@H]1O [Compound 52, ((2R,3S,4R,5S,6R)-2-(Hydroxymethyl)-6-[3-[4-[3-[(2R,3S,4R,5S,6R)-3,4,5-trihydroxy-6-(hydroxymethyl)tetrahydropyran-2-yl]phenyl]butyl]phenyl]tetrahydropyran-3,4,5-triol)] | < 0.005 µM | < 0.005 µM | 0.66 µM | 
2 | O=C(NCCCNC(=O)c1cccc([C@H]2O[C@H](CO)[C@@H](O)[C@H](O)[C@@H]2O)c1)c1cccc([C@H]2O[C@H](CO)[C@@H](O)[C@H](O)[C@@H]2O)c1 [Compound 9, (R,R,S,R,S)-N,N′-(Propane-1,3-diyl)bis(3-((2R,3S,4R,5S,6R)-3,4,5-trihydroxy-6-(hydroxymethyl)tetrahydro-2H-pyran-2-yl)benzamide)] | 0.024 µM |  |  | 0.007 µM and 0.012 µM
3 | OC[C@H]1O[C@H](C#Cc2cccc(C#C[C@H]3O[C@H](CO)[C@@H](O)[C@H](O)[C@@H]3O)c2)[C@@H](O)[C@@H](O)[C@@H]1O [Compound 57, (2R,3S,4R,5S,6R)-2-(Hydroxymethyl)-6-[2-[3-[2-[(2R,3S,4R,5S,6R)-3,4,5-trihydroxy-6-(hydroxymethyl)tetrahydropyran-2-yl]ethynyl]phenyl]ethynyl]tetrahydropyran-3,4,5-triol] | < 0.005 µM | < 0.005 µM | 0.027 µM | 
4 | OC[C@H]1O[C@H](C#Cc2ccc3cc(C#C[C@H]4O[C@H](CO)[C@@H](O)[C@H](O)[C@@H]4O)ccc3c2)[C@@H](O)[C@@H](O)[C@@H]1O [Compound 59, (2R,3S,4R,5S,6R)-2-(Hydroxymethyl)-6-[2-[6-[2-[(2R,3S,4R,5S,6R)-3,4,5-trihydroxy-6-(hydroxymethyl)tetrahydropyran-2-yl]ethynyl]-2-naphthyl]ethynyl]tetrahydropyran-3,4,5-triol] | < 0.005 µM | < 0.005 µM | 0.0082 µM | 
5 | OC[C@H]1O[C@H](c2cn([C@H]3O[C@H](CO)[C@@H](O)[C@H](O)[C@@H]3O)nn2)[C@@H](O)[C@@H](O)[C@@H]1O [Compound 42, ((2R,3S,4R,5S,6R)-2-(Hydroxymethyl)-6-[1-[(2S,3S,4S,5S,6R)-3,4,5-trihydroxy-6-(hydroxymethyl)tetrahydropyran-2-yl]triazol-4-yl]tetrahydropyran-3,4,5-triol)] | 0.14 µM and 0.145 µM |  |  | 0.114 µM and 0.377 µM
6 | O=C(Nc1cccc([C@H]2O[C@H](CO)[C@@H](O)[C@H](O)[C@@H]2O)c1)Nc1cccc([C@H]2O[C@H](CO)[C@@H](O)[C@H](O)[C@@H]2O)c1 [Compound 51, (1,3-Bis(3-((2R,3S,4R,5S,6R)-3,4,5-trihydroxy-6-(hydroxymethyl)tetrahydro-2H-pyran-2-yl)phenyl)urea)] | 0.015 µM and < 0.005 µM |  | 0.83 µM | 
7 | OC[C@H]1O[C@H](c2ccc3cc(C#C[C@H]4O[C@H](CO)[C@@H](O)[C@H](O)[C@@H]4O)ccc3c2)[C@@H](O)[C@@H](O)[C@@H]1O [Compound 56, (2R,3S,4R,5S,6R)-2-(Hydroxymethyl)-6-[2-[6-[(2R,3S,4R,5S,6R)-3,4,5-trihydroxy-6-(hydroxymethyl)tetrahydropyran-2-yl]-2-naphthyl]ethynyl]tetrahydropyran-3,4,5-triol] | < 0.005 µM | < 0.005 µM | 0.02 µM | 
8 | OC[C@H]1O[C@H](C#Cc2ccc3ccc(C#C[C@H]4O[C@H](CO)[C@@H](O)[C@H](O)[C@@H]4O)cc3c2)[C@@H](O)[C@@H](O)[C@@H]1O [Compound 58, (2R,3S,4R,5S,6R)-2-(Hydroxymethyl)-6-[2-[7-[2-[(2R,3S,4R,5S,6R)-3,4,5-trihydroxy-6-(hydroxymethyl)tetrahydropyran-2-yl]ethynyl]-2-naphthyl]ethynyl]tetrahydropyran-3,4,5-triol] | < 0.005 µM | < 0.005 µM | 0.017 µM | 
9 | OC[C@H]1O[C@H](C#Cc2cccc3c(C#C[C@H]4O[C@H](CO)[C@@H](O)[C@H](O)[C@@H]4O)cccc23)[C@@H](O)[C@@H](O)[C@@H]1O [Compound 60, (2R,3S,4R,5S,6R)-2-(Hydroxymethyl)-6-[2-[5-[2-[(2R,3S,4R,5S,6R)-3,4,5-trihydroxy-6-(hydroxymethyl)tetrahydropyran-2-yl]ethynyl]-1-naphthyl]ethynyl]tetrahydropyran-3,4,5-triol] | < 0.005 µM | < 0.005 µM | 0.013 µM | 
10 | OC[C@H]1O[C@H](c2cccc(C#CC#Cc3cccc([C@H]4O[C@H](CO)[C@@H](O)[C@H](O)[C@@H]4O)c3)c2)[C@@H](O)[C@@H](O)[C@@H]1O [Compound 50, ((2R,3S,4R,5S,6R)-2-(Hydroxymethyl)-6-[3-[4-[3-[(2R,3S,4R,5S,6R)-3,4,5-trihydroxy-6-(hydroxymethyl)tetrahydropyran-2-yl]phenyl]buta-1,3-diynyl]phenyl]tetrahydropyran-3,4,5-triol)] | 9 nM and < 5 nM (2×) |  | 0.95 µM | 
11 | OC[C@H]1O[C@H](C#CC#C[C@H]2O[C@H](CO)[C@@H](O)[C@H](O)[C@@H]2O)[C@@H](O)[C@@H](O)[C@@H]1O [Compound 54, (2R,3S,4R,5S,6R)-2-(hydroxymethyl)-6-[4-[(2R,3S,4R,5S,6R)-3,4,5-trihydroxy-6-(hydroxymethyl)tetrahydropyran-2-yl]buta-1,3-diynyl]tetrahydropyran-3,4,5-triol] | 0.016 µM and 0.03 µM |  | 1.15 µM | 
12 | OC[C@H]1O[C@H](C#Cc2ccc(C#C[C@H]3O[C@H](CO)[C@@H](O)[C@H](O)[C@@H]3O)cc2)[C@@H](O)[C@@H](O)[C@@H]1O [Compound 53, (2R,3S,4R,5S,6R)-2-(Hydroxymethyl)-6-[2-[4-[2-[(2R,3S,4R,5S,6R)-3,4,5-trihydroxy-6-(hydroxymethyl)tetrahydropyran-2-yl]ethynyl]phenyl]ethynyl]tetrahydropyran-3,4,5-triol] | < 0.005 µM | < 0.005 µM | 0.055 µM | 
13 | OC[C@H]1O[C@H](c2csc([C@H]3O[C@H](CO)[C@@H](O)[C@H](O)[C@@H]3O)c2)[C@@H](O)[C@@H](O)[C@@H]1O [Compound 47, ((2R,3S,4R,5S,6R)-2-(Hydroxymethyl)-6-[5-[(2S,3S,4S,5S,6R)-3,4,5-trihydroxy-6-(hydroxymethyl)tetrahydropyran-2-yl]-3-thienyl]tetrahydropyran-3,4,5-triol)] | 0.044 µM and 0.037 µM and 0.051 µM and 0.036 µM |  |  | 
14 | OC[C@H]1O[C@H](C/C=C/c2ccc(C#C[C@H]3O[C@H](CO)[C@@H](O)[C@H](O)[C@@H]3O)cc2)[C@@H](O)[C@@H](O)[C@@H]1O [Compound 55, (2R,3S,4R,5S,6R)-2-(Hydroxymethyl)-6-[(E)-3-[4-[2-[(2R,3S,4R,5S,6R)-3,4,5-trihydroxy-6-(hydroxymethyl)tetrahydropyran-2-yl]ethynyl]phenyl]allyl]tetrahydropyran-3,4,5-triol] | < 0.005 µM and 0.005 µM |  | 0.21 µM | 
